According to patent US8952024B2, “Herbicidal pyrimidone derivatives” (E I du Pont de Nemours and Company, priority 2009, dated 2015):

Assays:
Assay in all cases: Test B pre-/postemergence plant response
Format in all cases: in vivo
[1] = tested on: bermudagrass (Cynodon dactylon); conditions: for Bermudagrass plant response rating (0 to 100 scale): 0 is no effect
How it was run: (§1)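 Test compounds, formulated in a non-phytotoxic solvent mixture with surfactant, are applied to the soil surface (loam and sand blend) right after seeding, or sprayed over plants at the 1- to 4-leaf stage grown in peat moss/vermiculite medium. After 13 to 15 days under glasshouse conditions, each species is scored visually from 0 (no effect) to 100 (complete control) against controls.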

kochia (Kochia scoparia) = tested on: kochia (Kochia scoparia)
How it was run: as §1

[2] = tested on: cocklebur (Xanthium strumarium)
How it was run: as §1

wild oat (Avena fatua) = tested on: wild oat (Avena fatua)
How it was run: as §1

[3] = tested on: Italian ryegrass (Lolium multiflorum)
How it was run: as §1

[4] = tested on: morningglory (Ipomoea coccinea)
How it was run: as §1

[5] = tested on: large crabgrass (Digitaria sanguinalis)
How it was run: as §1

[6] = tested on: woolly cupgrass (Eriochloa villosa)
How it was run: as §1

[7] = tested on: blackgrass (Alopecurus myosuroides); conditions: for Blackgrass plant response rating (0 to 100 scale): 0 is no effect
How it was run: as §1

[8] = tested on: wheat (Triticum aestivum)
How it was run: as §1

[9] = tested on: ragweed (common ragweed, Ambrosia elatior)
How it was run: as §1

[10] = tested on: downy bromegrass (Bromus tectorum); conditions: for Bromegrass, Downy plant response rating (0 to 100 scale): 0 is no effect
How it was run: as §1

[11] = tested on: Surinam grass (Brachiaria decumbens)
How it was run: as §1

[12] = Postemergence, 31 g ai/ha, scale 0 to 100 (0 no effect, 100 complete control)
[13] = Postemergence, 62 g ai/ha, scale 0 (no effect) to 100 (complete control), 13 to 15 days
[14] = Postemergence, 250 g ai/ha, scale 0 to 100
[15] = Postemergence, 125 g ai/ha, visual rating after 13 to 15 days, scale 0 (no effect) to 100 (complete control)
[16] = 31 g ai/ha, postemergence, scale 0 to 100, 0 is no effect, 100 is complete control
[17] = 62 g ai/ha, postemergence, 100 is complete control, 13 to 15 days
[18] = Postemergence, 250 g ai/ha, scale 0 to 100 (0 no effect, 100 complete control)
[19] = 62 g ai/ha, postemergence, 0 is no effect, 100 is complete control, 13 to 15 days
[20] = Postemergence, 31 g ai/ha, 0 to 100 scale (0 no effect, 100 complete control)
[21] = Postemergence, 125 g ai/ha, scale 0 to 100 (0 no effect, 100 complete control)
[22] = Postemergence, 250 g ai/ha, scale 0 to 100 (0 no effect, 100 complete control), 13 to 15 days

## Cc1ccc(-n2c(-c3ccccc3)ncc(C(=O)C3=C(O)CCCC3=O)c2=O)cc1 [Compound 8]
[1]; [12]
  Plant response rating, Bermudagrass: 60
[1]; [13]
  Plant response rating, Bermudagrass: 85
[1]; Postemergence, 125 g ai/ha, scale 0 to 100 (0 no effect, 100 complete control), 13 to 15 days
  Plant response rating, Bermudagrass: 95
[1]; [14]
  Bermudagrass plant response rating: 100
Kochia (Kochia scoparia); [12]
  Plant response rating, Kochia: 85
Kochia (Kochia scoparia); [13]
  Plant response rating, Kochia: 100
Kochia (Kochia scoparia); [15]
  Plant response rating, Kochia: 100
Kochia (Kochia scoparia); [14]
  Kochia plant response rating: 100
[2]; [12]
  Plant response rating, Cocklebur: 100
[2]; [13]
  Plant response rating, Cocklebur: 100
[2]; [15]
  Plant response rating, Cocklebur: 100
[2]; [14]
  Cocklebur plant response rating: 100
Wild oat (Avena fatua); [12]
  Plant response rating, Oat, Wild: 10
Wild oat (Avena fatua); [13]
  Plant response rating, Oat, Wild: 15
Wild oat (Avena fatua); [15]
  Plant response rating, Oat, Wild: 35
Wild oat (Avena fatua); [14]
  Oat, Wild plant response rating: 35
[3]; [12]
  Plant response rating, Ryegrass, Italian: 20
[3]; [13]
  Plant response rating, Ryegrass, Italian: 20
[3]; [15]
  Plant response rating, Ryegrass, Italian: 30
[3]; [14]
  Ryegrass, Italian plant response rating: 50
[4]; [12]
  Plant response rating, Morningglory: 75
[4]; [13]
  Plant response rating, Morningglory: 90
[4]; [15]
  Plant response rating, Morningglory: 100
[4]; [14]
  Morningglory plant response rating: 100
[5]; [12]
  Plant response rating, Crabgrass, Large: 70
[5]; [13]
  Plant response rating, Crabgrass, Large: 85
[5]; [15]
  Plant response rating, Crabgrass, Large: 90
[5]; [14]
  Crabgrass, Large plant response rating: 100
[6]; [12]
  Plant response rating, Cupgrass, Woolly: 75
[6]; [13]
  Plant response rating, Cupgrass, Woolly: 80
[6]; [15]
  Plant response rating, Cupgrass, Woolly: 90
[6]; [14]
  Cupgrass, Woolly plant response rating: 100
[7]; [12]
  Plant response rating, Blackgrass: 5
[7]; [13]
  Plant response rating, Blackgrass: 10
[7]; [15]
  Plant response rating, Blackgrass: 10
[7]; [14]
  Blackgrass plant response rating: 20
[8]; [12]
  Plant response rating, Wheat: 25
[8]; [13]
  Plant response rating, Wheat: 30
[8]; [15]
  Plant response rating, Wheat: 35
[8]; [14]
  Wheat plant response rating: 35
[9]; [12]
  Plant response rating, Ragweed: 90
[9]; [13]
  Plant response rating, Ragweed: 100
[9]; [15]
  Plant response rating, Ragweed: 100
[9]; [14]
  Ragweed plant response rating: 100
[10]; [12]
  Plant response rating, Bromegrass, Downy: 5
[10]; [13]
  Plant response rating, Bromegrass, Downy: 5
[10]; [15]
  Plant response rating, Bromegrass, Downy: 10
[10]; [14]
  Bromegrass, Downy plant response rating: 10
[11]; [12]
  Plant response rating, Surinam Grass: 60
[11]; [13]
  Plant response rating, Surinam Grass: 65
[11]; [15]
  Plant response rating, Surinam Grass: 75
[11]; [14]
  Surinam Grass plant response rating: 80

## O=C1CCCC(O)=C1C(=O)c1cnc(-c2ccccc2Br)n(-c2ccccc2)c1=O [Compound 71]
[1]; [16]
  Plant response rating, Bermudagrass: 65
[1]; [17]
  Bermudagrass plant response rating (0 to 100 scale): 75
[1]; [15]
  Plant response rating, Bermudagrass: 80
[1]; [18]
  Plant response rating, Bermudagrass: 98
Kochia (Kochia scoparia); [16]
  Plant response rating, Kochia: 0
Kochia (Kochia scoparia); [19]
  Kochia plant response rating (0 to 100 scale): 0
Kochia (Kochia scoparia); [15]
  Plant response rating, Kochia: 25
Kochia (Kochia scoparia); [18]
  Plant response rating, Kochia: 65
[2]; [16]
  Plant response rating, Cocklebur: 65
[2]; [19]
  Cocklebur plant response rating (0 to 100 scale): 65
[2]; [15]
  Plant response rating, Cocklebur: 95
[2]; [18]
  Plant response rating, Cocklebur: 95
Wild oat (Avena fatua); [16]
  Plant response rating, Oat, Wild: 0
Wild oat (Avena fatua); [19]
  Oat, Wild plant response rating (0 to 100 scale): 0
Wild oat (Avena fatua); [15]
  Plant response rating, Oat, Wild: 0
Wild oat (Avena fatua); [18]
  Plant response rating, Oat, Wild: 5
[3]; [16]
  Plant response rating, Ryegrass, Italian: 0
[3]; [19]
  Ryegrass, Italian plant response rating (0 to 100 scale): 0
[3]; [15]
  Plant response rating, Ryegrass, Italian: 0
[3]; [18]
  Plant response rating, Ryegrass, Italian: 5
[4]; [16]
  Plant response rating, Morningglory: 65
[4]; [19]
  Morningglory plant response rating (0 to 100 scale): 65
[4]; [15]
  Plant response rating, Morningglory: 75
[4]; [18]
  Plant response rating, Morningglory: 80
[5]; [16]
  Plant response rating, Crabgrass, Large: 65
[5]; [19]
  Crabgrass, Large plant response rating (0 to 100 scale): 75
[5]; [15]
  Plant response rating, Crabgrass, Large: 80
[5]; [18]
  Plant response rating, Crabgrass, Large: 95
[6]; [16]
  Plant response rating, Cupgrass, Woolly: 10
[6]; [19]
  Cupgrass, Woolly plant response rating (0 to 100 scale): 45
[6]; [15]
  Plant response rating, Cupgrass, Woolly: 85
[6]; [18]
  Plant response rating, Cupgrass, Woolly: 100
[7]; [16]
  Plant response rating, Blackgrass: 0
[7]; [17]
  Blackgrass plant response rating (0 to 100 scale): 0
[7]; [15]
  Plant response rating, Blackgrass: 0
[7]; [18]
  Plant response rating, Blackgrass: 5
[8]; [16]
  Plant response rating, Wheat: 0
[8]; [19]
  Wheat plant response rating (0 to 100 scale): 0
[8]; [15]
  Plant response rating, Wheat: 0
[8]; [18]
  Plant response rating, Wheat: 5
[9]; [16]
  Plant response rating, Ragweed: 75
[9]; [19]
  Ragweed plant response rating (0 to 100 scale): 80
[9]; [15]
  Plant response rating, Ragweed: 80
[9]; [18]
  Plant response rating, Ragweed: 95
[10]; [16]
  Plant response rating, Bromegrass, Downy: 0
[10]; [17]
  Bromegrass, Downy plant response rating (0 to 100 scale): 5
[10]; [15]
  Plant response rating, Bromegrass, Downy: 10
[10]; [18]
  Plant response rating, Bromegrass, Downy: 30
[11]; [16]
  Plant response rating, Surinam Grass: 50
[11]; [19]
  Surinam Grass plant response rating (0 to 100 scale): 55
[11]; [15]
  Plant response rating, Surinam Grass: 65
[11]; [18]
  Plant response rating, Surinam Grass: 85

## CCCn1c(-c2cc(C)cc(C)c2)ncc(C(=O)C2=C(O)CCCC2=O)c1=O [Compound 156]
[1]; [17]
  Bermudagrass plant response rating (0 to 100 scale): 90
[1]; [20]
  Plant response rating, Bermudagrass: 80
[1]; [21]
  Plant response rating, Bermudagrass: 95
[1]; [22]
  Plant response rating, Bermudagrass: 98
Kochia (Kochia scoparia); [20]
  Plant response rating, Kochia: 10
Kochia (Kochia scoparia); [21]
  Plant response rating, Kochia: 20
Kochia (Kochia scoparia); [22]
  Plant response rating, Kochia: 25
[2]; [20]
  Plant response rating, Cocklebur: 20
[2]; [21]
  Plant response rating, Cocklebur: 75
[2]; [22]
  Plant response rating, Cocklebur: 98
Wild oat (Avena fatua); [20]
  Plant response rating, Oat, Wild: 5
Wild oat (Avena fatua); [21]
  Plant response rating, Oat, Wild: 35
Wild oat (Avena fatua); [22]
  Plant response rating, Oat, Wild: 50
[3]; [20]
  Plant response rating, Ryegrass, Italian: 0
[3]; [21]
  Plant response rating, Ryegrass, Italian: 20
[3]; [22]
  Plant response rating, Ryegrass, Italian: 40
[4]; [20]
  Plant response rating, Morningglory: 80
[4]; [21]
  Plant response rating, Morningglory: 100
[4]; [22]
  Plant response rating, Morningglory: 100
[5]; [20]
  Plant response rating, Crabgrass, Large: 45
[5]; [21]
  Plant response rating, Crabgrass, Large: 65
[5]; [22]
  Plant response rating, Crabgrass, Large: 80
[6]; [20]
  Plant response rating, Cupgrass, Woolly: 40
[6]; [21]
  Plant response rating, Cupgrass, Woolly: 55
[6]; [22]
  Plant response rating, Cupgrass, Woolly: 65
[7]; [17]
  Blackgrass plant response rating (0 to 100 scale): 5
[7]; [20]
  Plant response rating, Blackgrass: 5
[7]; [21]
  Plant response rating, Blackgrass: 35
[7]; [22]
  Plant response rating, Blackgrass: 50
[8]; [20]
  Plant response rating, Wheat: 15
[8]; [21]
  Plant response rating, Wheat: 35
[8]; [22]
  Plant response rating, Wheat: 45
[9]; [20]
  Plant response rating, Ragweed: 65
[9]; [21]
  Plant response rating, Ragweed: 75
[9]; [22]
  Plant response rating, Ragweed: 90
[10]; [17]
  Bromegrass, Downy plant response rating (0 to 100 scale): 10
[10]; [20]
  Plant response rating, Bromegrass, Downy: 10
[10]; [21]
  Plant response rating, Bromegrass, Downy: 35
[10]; [22]
  Plant response rating, Bromegrass, Downy: 40
[11]; [20]
  Plant response rating, Surinam Grass: 40
[11]; [21]
  Plant response rating, Surinam Grass: 60
[11]; [22]
  Plant response rating, Surinam Grass: 70
